In patent US6150361A, “Triazineone compounds for treating diseases due to sarcosystis, neospora and toxoplasma” (Bayer Corporation, priority 1998, dated 2000):
“And” between values parts separate entries of the source, which are not always exact repeats. Equal values may be shown once. Values belong to the compound of their own block, whether it stands above or below them.

Columns and labels:
Assay type in all cases: in vivo
[1] = Pharmacokinetics of a single oral dose of Toltrazuril in horses (blood levels); details: single oral dose of Toltrazuril 10 mg/kg; for concentration at 24 h / Concentration in mg/l of Blood, 24 hours: 24 h post treatment; for concentration at 24 h: read-out: Concentration in mg/l of Blood, 24 hours; for concentration at 48 h / Concentration in mg/l of Blood, 48 hours: 48 h post treatment; for concentration at 48 h: read-out: Concentration in mg/l of Blood, 48 hours; for concentration at 72 h / Concentration in mg/l of Blood, 72 hours: 72 h post treatment; for concentration at 72 h: read-out: Concentration in mg/l of Blood, 72 hours; for Concentration in mg/l of Blood, 24 hours: 1440 min; for Concentration in mg/l of Blood, 48 hours: 2880 min; for Concentration in mg/l of Blood, 72 hours: 4320 min
Experimental: A pharmacokinetic study was conducted in horses comparing blood levels of Toltrazuril, Ponazuril and Toltrazuril Sulfoxide at various times post a single dose of Toltrazuril. All horses received a single dose of 10 mg/kg, which was administered orally as a suspension. Blood samples were drawn at the time of treatment (0) and at 0.25, 0.5, 1, 2, 4, 6, 12, 24, 48 and 72 hours post treatment. […] This was an indication that Ponazuril, alone, would produce acceptable blood levels that are envisioned to pass the blood-brain barrier, a characteristic required to treat neurological diseases such as those caused by Sarcocystis neurona, Toxoplasma gondii, Neospora caninum and Neospora

[2] = Passing of the blood-brain barrier in horses; details: after oral Toltrazuril daily for 10 days
Experimental: (§1) This experiment was conducted in order to determine whether triazineones such as Toltrazuril can pass the blood-brain barrier. Normal horses were divided into three groups of three horses per group. Group 1 horses received Toltrazuril administered orally as a 5% suspension at a dose level of 2.5 mg/Kg. Group 2 horses received Toltrazuril administered orally as a 5% suspension at a dose level of 5.0 mg/Kg. Group 3 horses received Toltrazuril administered orally as a 5% suspension at a dose level of 7.5 mg/Kg. The dosing was repeated daily for 10 days. Blood samples were drawn at 48, 96 and 240 hours and the concentration of Toltrazuril, Toltrazuril sulfoxide and Ponazuril in the serum was measured. Ten days after the start of the treatment (Day 10), a sample of cerebral spinal fluid was removed from each horse and the concentrations of Toltrazuril, Toltrazuril Sulfoxide and Ponazuril were again measured in these samples. The concentrations of Toltrazuril, Toltrazuril Sulfoxide and Ponazuril in the serum and cerebral spinal fluid are reported in TABLES 5a and 5b.

[3] = Drug levels in cerebral spinal fluid after repeated doses of Toltrazuril in horses; design: Drug level in Cerebral Spinal Fluid, Day 10 / AVG drug level in Cerebral Spinal Fluid, Day 10: unit not given here; details: Day 10; for AVG drug level in Cerebral Spinal Fluid, Day 10: group average; for Drug level in Cerebral Spinal Fluid, Day 10: individual horse
Experimental: as §1

[4] = Drug levels in serum after repeated doses of Toltrazuril in horses; design: unit not given here; details: for AVG drug level in serum, 48 Hrs / AVG drug level in serum, 96 Hrs / AVG drug level in serum, 240 Hrs: group average; for Drug level in serum, 48 Hrs / Drug level in serum, 96 Hrs / Drug level in serum, 240 Hrs: individual horse
Experimental: as §1

[5] = horse, blood, po, 10 mg/kg, suspension, one value per horse (A-F)
[6] = suspension, one value per horse (A-F), 10 mg/kg
[7] = Toltrazuril 2.5 mg/Kg oral daily for 10 days
[8] = Toltrazuril 5.0 mg/Kg oral daily for 10 days
[9] = Toltrazuril 7.5 mg/Kg oral daily for 10 days

concentration at 0.25 h ([1]; horse, blood, po, 10 mg/kg, suspension, 0.25 h post treatment, one value per horse (A-F), read-out: Concentration in mg/l of Blood, 0.25 hours): < 0.01 mg/L | concentration at 24 h [1, 5]: 0.407 mg/L | concentration at 48 h [1, 5]: 0.732 mg/L | concentration at 72 h [1, 5]: 0.592 mg/L | levels in serum/bloodstream of horses receiving Toltrazuril (in words) [1]: significant levels | Concentration in mg/l of Blood, 72 hours [1, 6]: 0.346 mg/L and 0.377 mg/L
Structure (SMILES): Cc1cc(-n2c(=O)[nH]c(=O)n(C)c2=O)ccc1Oc1ccc([S+]([O-])C(F)(F)F)cc1 (centres unmarked) [Toltrazuril Sulfoxide]
Concentration in mg/l of Blood, 24 hours [1, 6]: 0.566 mg/L and 0.461 mg/L and 0.481 mg/L and 0.633 mg/L | Concentration in mg/l of Blood, 48 hours [1, 6]: 0.454 mg/L and 0.477 mg/L and 0.749 mg/L and 0.741 mg/L and 0.642 mg/L

AVG drug level in Cerebral Spinal Fluid, Day 10 [3, 7]: 0.15 | Drug level in Cerebral Spinal Fluid, Day 10 [3, 7]: 0.23 and 0.06 and 0.15 | AVG drug level in Cerebral Spinal Fluid, Day 10 [3, 8]: 0.19 | Drug level in Cerebral Spinal Fluid, Day 10 [3, 8]: 0.19 and 0.12 and 0.26 | AVG drug level in Cerebral Spinal Fluid, Day 10 [3, 9]: 0.39 | Drug level in Cerebral Spinal Fluid, Day 10 [3, 9]: 0.50 and 0.21 and 0.45 | AVG drug level in serum, 48 Hrs [4, 7]: 6.70 | AVG drug level in serum, 96 Hrs [4, 7]: 10.68 | AVG drug level in serum, 240 Hrs [4, 7]: 13.37 | Drug level in serum, 48 Hrs [4, 7]: 4.49 and 4.0 and 11.6 | Drug level in serum, 96 Hrs [4, 7]: 9.85 and 9.09 and 13.1 | Drug level in serum, 240 Hrs [4, 7]: 15.29 and 9.60 and 15.21 | AVG drug level in serum, 48 Hrs [4, 8]: 8.57 | AVG drug level in serum, 96 Hrs [4, 8]: 15.46 | AVG drug level in serum, 240 Hrs [4, 8]: 19.68 | Drug level in serum, 48 Hrs [4, 8]: 7.28 and 9.18 and 9.26 | Drug level in serum, 96 Hrs [4, 8]: 14.17 and 14.03 and 18.19 | Drug level in serum, 240 Hrs [4, 8]: 24.92 and 16.54 and 17.59 | AVG drug level in serum, 48 Hrs [4, 9]: 10.18 | AVG drug level in serum, 96 Hrs [4, 9]: 21.92 | AVG drug level in serum, 240 Hrs [4, 9]: 25.95 | Drug level in serum, 48 Hrs [4, 9]: 9.90 and 10.46 | Drug level in serum, 96 Hrs [4, 9]: 27.74 and 19.55 and 18.47 | Drug level in serum, 240 Hrs [4, 9]: 30.08 and 24.15 and 23.53 | concentration at 24 h [1, 5]: 6.43 mg/L | concentration at 48 h [1, 5]: 7.61 mg/L | concentration at 72 h [1, 5]: 6.65 mg/L | Concentration in mg/l of Blood, 0.25 hours ([1]; suspension, 0.25 h post treatment, one value per horse (A-F), 10 mg/kg, 15 min): 0.061 mg/L | Concentration in mg/l of Blood, 1 hour ([1]; suspension, 1 h post treatment, one value per horse (A-F), 10 mg/kg, 60 min): 3.286 mg/L | Concentration in mg/l of Blood, 72 hours [1, 6]: 5.058 mg/L and 7.633 mg/L
Structure (SMILES): Cc1cc(-n2c(=O)[nH]c(=O)n(C)c2=O)ccc1Oc1ccc(SC(F)(F)F)cc1 [Toltrazuril, reference compound]
crossing of the blood-brain barrier [2]: effectively cross the blood-brain barrier | Concentration in mg/l of Blood, 24 hours [1, 6]: 11.690 mg/L and 7.236 mg/L and 8.694 mg/L and 10.224 mg/L | Concentration in mg/l of Blood, 48 hours [1, 6]: 6.677 mg/L and 9.758 mg/L and 8.234 mg/L and 6.869 mg/L and 7.096 mg/L
